Results: patent publication US10160971B2, “Methods of modulating WARS2” (NATIONAL UNIVERSITY OF SINGAPORE, priority 2014, dated 2018)
Residues, ends and D or L forms follow the SMILES beside them. *: point of attachment. Cbz = O=C(OCc1ccccc1)*

What was measured:
RPL14a = test: Loss of RPL14a on WARS2 over-expression, reversal by proteasome inhibitor; assay type: cell-based
Protocol: Cells were lysed in cell lysis buffer (9803, Cell Signaling) containing protease inhibitor (Sigma) and phosphatase inhibitor (Halt Phosphase inhibitor Cocktail, Thermo Scientific) and PMSF (0.5 mM Active Motif). Cell lysate was then briefly sonicated and centrifuged for 10 minutes at 14,000 g (4° C.). Supernatants were retained and protein concentrations were determined using the bicinchoninic acid assay with bovine serum albumin standards. Protein samples (20 μg) were separated on 10% or 13% SDS-polyacrylamide gels, transferred to nitrocellulose membranes, and probed with antibodies as described in the figure legends. Immunoreactive bands were visualized with a horseradish peroxidase-conjugated secondary antibody using Peroxide and LumiGlo reagents (Cell Signaling).

WARS secretion = WARS secretion in HUVEC cell media; assay type: cell-based, human; conditions: HUVEC cells
Protocol: Human embryonic kidney (HEK) 293 cells were maintained in DMEM supplemented with 10% foetal calf serum and 100 U/ml penicillin and 100 μg/ml streptomycin. Human umbilical vein endothelial (HUVEC) cells and medium (EBM- and EBM-2 single Quats) were purchased from Lonza and used prior to passage 7. For plasmid transfections (for HEK293), cells were seeded a day before at 70% confluence and lipofectamine […] (InvitroGene) transfection reagents were used according to the company's instruction. For HUVEC transfection, Polyplus jetPEI-HUVEC transfection reagent (POLYPLUS-TRANSFECTION Inc. New York) was used according to the company's instruction. For gene transfer, HUVEC were grown to 80% confluence in 6-well plates or T75 flasks. Transduction of cells was performed with a multiplicity of infection (MOI) of 200 plaque-forming units (pfu) in a total volume of 1 ml (6-well plates) or 10 ml (T75 flasks) in HUVEC growth medium. […]
HUVEC cells were seeded in 6-well plates. […] The knockdown efficacy could not be determined by western blot since no antibody against WARS2 can detect endogenous WARS2, although two anti-WARS2 antibodies we made can detect WARS2 in lysates from cells expressing WARS2-flag. […]

[1] = target: T1, human mitochondrial WARS2 (Homo sapiens, UniProt Q9UGM6); test: WARS2 AMP-Glo enzyme assay; assay type: biochemical; conditions: indolmycin 10 micromolar; enzyme 200 nM; 37° C. one hour
T1 construct: GST (inferred from GSH-bead purification; made in house; own inference)
T1 sequence (Q9UGM6 19-360): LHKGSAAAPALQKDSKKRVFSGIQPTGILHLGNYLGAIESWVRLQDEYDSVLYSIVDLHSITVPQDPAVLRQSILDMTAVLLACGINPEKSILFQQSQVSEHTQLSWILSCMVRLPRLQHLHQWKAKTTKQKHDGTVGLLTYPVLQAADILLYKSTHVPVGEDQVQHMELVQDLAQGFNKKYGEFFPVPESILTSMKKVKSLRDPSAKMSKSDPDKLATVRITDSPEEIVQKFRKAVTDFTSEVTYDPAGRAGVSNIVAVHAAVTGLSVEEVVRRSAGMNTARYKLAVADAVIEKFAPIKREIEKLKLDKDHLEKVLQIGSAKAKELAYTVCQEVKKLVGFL
Protocol: (§1) The WARS and WARS2 enzyme assay was performed using an ATP depletion assay based on a chemilumines optimized with the AMP-Glo™ reagent (Promega) using 96-well format assay. Reaction buffer contained 25 mM Tris-HCL pH7.2, 10 mM MgCl2, 50 mM KCl, 2.5 mM dithiothreitol, 0.1 mg/mL bovine serum albumin, 0.2 mM spermine, 10 U/mL pyrophosphatase and enzyme concentration used was 200 nM. Substrate concentrations were as follows: L-tryptophan 100 μM, bulk E. coli tRNA (Sigma) 200 μg/mL and ATP 100 μM. Reaction was carried out at 37° C. for one hour, followed by adding reagent I (AMP-glo kit). The plate was incubated at room temperature for another hour. At the end of the hour the AMP detection solution was added to all the samples and incubated for one hour at room temperature. Data was collected by measuring the luminescence with the Infinite M200 microplate Reader (Tecan). Indolmycin was added at 10 micromolar concentration where indicated.

human cytosolic WARS = target: T2, human cytosolic WARS (Homo sapiens, UniProt P23381); test: WARS AMP-Glo enzyme assay; assay type: biochemical; conditions: indolmycin 10 micromolar; enzyme 200 nM; 37° C. one hour
T2 sequence (P23381 1-471): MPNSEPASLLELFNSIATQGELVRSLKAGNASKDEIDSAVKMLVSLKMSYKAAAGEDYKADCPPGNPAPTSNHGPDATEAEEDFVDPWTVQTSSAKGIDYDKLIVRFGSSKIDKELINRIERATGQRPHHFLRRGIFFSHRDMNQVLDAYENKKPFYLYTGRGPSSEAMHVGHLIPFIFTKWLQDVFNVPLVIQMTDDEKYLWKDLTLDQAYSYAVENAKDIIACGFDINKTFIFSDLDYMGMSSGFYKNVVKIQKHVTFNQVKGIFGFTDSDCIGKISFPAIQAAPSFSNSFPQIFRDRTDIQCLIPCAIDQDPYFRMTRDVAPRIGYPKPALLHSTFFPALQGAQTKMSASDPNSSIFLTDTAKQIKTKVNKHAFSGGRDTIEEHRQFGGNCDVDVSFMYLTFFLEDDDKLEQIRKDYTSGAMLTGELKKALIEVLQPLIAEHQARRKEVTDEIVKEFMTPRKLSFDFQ
Protocol: as §1

[2] = test system: LASER-induced choroidal neovascularization (CNV); test: Rat model of LASER-induced choroidal neovascularization (CNV); assay type: in vivo; conditions: Brown Norway rats; bilateral intravitreal injection Day 3 (siRNA 100 μg/eye, Ab 5 μg/eye); fluorescein angiography Day 22
Protocol: Non-targeting siRNA (negative control), Wars2 siRNA (test agent), and anti-VEGF Ab (positive control) were administered intravitreously into the eyes of Brown Norway female rats aged 6-8 weeks, according to the following design: • Day 1: Bilateral Laser treatment to produce three (3) lesions per eye • Day 3: Bilateral intravitreal injection of negative control, positive control, or test agent • Day 22: In-vivo fluorescein angiography • Day 22: Enucleation of eyes and fixation for future histological analyses • Three (3) groups of five (5) rats were used, as set out in Table 4.
Animals were dilated with 1% Cyclogyl solution and protected from light. Following observable dilation, the animals were sedated with ketamine/xylazine. The fundus of sedated animals was observed and recorded using a Micron III small animal funduscope (Phoenix Research). Laser treatments were performed using a thermal laser which was connected through the Micron III custom laser attachment. […] The resultant fundus images were recorded and evaluated to confirm that the laser had successfully produced a bubble through the Bruch's membrane. […]
All TIFF images were quantified using computerized image-analysis software (ImageJ, NIH, USA). Lesions were then individually traced free-hand in order to quantify the area in pixels and the colour fundus photos were used as a reference for lesion location. […]

Wars2 = test: In vivo knock down of Wars2 in rat eye using cholesterol modified siRNA; conditions: F344 rats; 50 μg intravitreously; 48 hours; versus non-targeting siRNA in contralateral eye
Protocol: Both non-targeting (NT) siRNA and siWars2 were purchased from Dharmacon and formulated in the sterile siRNA buffer provided. Fifty (50) μg of siWars2 was injected intravitreously into one eye of each of three F344 rats in a total volume of 5 μl. The same dose of the NT control siRNA was injected into the contralateral eye of each animal. Retina and choroid were collected after 48 hours, and total RNA was extracted by Trizol (Ambion). cDNA was then synthesized according to the manufacturer's protocol (BioRad).
Real time PCR reactions to measure Wars2 expression were performed with the SYBRgreen mastermix (Qiagen) and normalized to GAPDH mRNA level by using the following primers: […]

human WARS2 mRNA = test: siWARS2 knock down in HEK 293 (QPCR); assay type: cell-based; conditions: non targeting control = 1; for WARS2 mRNA expression, Experiment 1 / WARS2 mRNA expression, Experiment 2 / WARS2 mRNA expression, Experiment 3 / WARS2 mRNA expression, Experiment 4 / WARS2 mRNA expression, Experiment 5: 120 nM siRNA, QPCR normalized to GAPDH (ddCt); for WARS2 mRNA expression, Average: average of 5 experiments
Protocol: HEK cells were seeded the day before transfection on 10 cm dish. At a density of ˜50%, transfection was performed using RNAimax (manufacturer's protocol). siRNA was prepared by using a mixture of 120 nM siRNA and 20 μl lipofectamin RNAimax in 1 ml OPTIMEM. Cells were incubated, washed 1× with PBS, and then covered with 5 ml OPTIMEM and the lipofectamin/siRNA mixture added dropwise. Cells were incubated (6 h) and media then changed to (DMEM/10% FBS). RNA was extracted as per protocol (Qiagen). RNA quantification was assessed using Nanodrop and the quality was determined based on OD ratio 260 nm/280 nm. Reverse transcription was performed using 1 μg RNA (Biorad iScript™ cDNA synthesis protocol) and QPCR performed using the QuantiFAST SYBR green protocol.
All samples were analyzed in duplicates and the mean and standard deviation were determined. Specificity of the amplification was determined by a melting curve ranging from 60-95° C. Normalization to GAPDH was performed using the standard ddCt method.

Molecule | WARS2 mRNA expression, Experiment 1 (human WARS2 mRNA) | WARS2 mRNA expression, Experiment 2 (human WARS2 mRNA) | WARS2 mRNA expression, Experiment 3 (human WARS2 mRNA) | WARS2 mRNA expression, Experiment 4 (human WARS2 mRNA) | WARS2 mRNA expression, Experiment 5 (human WARS2 mRNA) | WARS2 mRNA expression, Average (human WARS2 mRNA) | also measured
CC(C)C[C@@H](C=O)NC(=O)[C@H](CC(C)C)NC(=O)[C@H](CC(C)C)NC(=O)OCc1ccccc1 [MG132] (Cbz-Leu-Leu-Leu-aldehyde) | – | – | – | – | – | – | loss of RPL14a caused by over-expression of WARS2 (RPL14a): reversed
C[C@H]1CCC/C=C/[C@@H]2C[C@H](O)C[C@H]2[C@H](O)/C=C/C(=O)O1 [brefeldin A] | – | – | – | – | – | – | WARS secretion in presence of inhibitor of golgi-mediated secretion (WARS secretion): No effect
CN=C1NC(=O)[C@H]([C@H](C)c2c[nH]c3ccccc23)O1 [indolmycin] | – | – | – | – | – | – | inhibition of WARS2 enzyme activity [1]: inhibited human mitochondrial WARS2; inhibition of WARS enzyme activity (human cytosolic WARS): not human cytosolic WARS activity
Wars2 siRNA: Rat Wars2 siRNA from Dharmacon: sense 5′-GCUCCAAUCAGAAGUGAUU-3′ (SEQ ID NO: 48), antisense 5′-UCACUUCUGAUUGGAGCUU-3′ (SEQ ID NO: 49) (cholesterol-modified siRNA, position of cholesterol not given here) | – | – | – | – | – | – | extent of neovascularization [2]: significant reduction in the extent of neovascularization; Wars2 expression in retina and choroid (Wars2): greater inhibition of Wars2 expression
siRNA 1: Sense 5′-GCAUUCAACCUACAGGAAU-3′ (SEQ ID NO: 50), antisense 5′-AUUCCUGUAGGUUGAAUGC-3′ (SEQ ID NO: 51) (listed as RNA, chemistry not given here) | 0.26 | 0.13 | 0.18 | 0.13 | 0.14 | 0.17 | –
siRNA 2: Sense 5′-CCGACAUUCUGUUGUACAA-3′ (SEQ ID NO: 52), antisense 5′-UUGUACAACAGAAUGUCGG-3′ (SEQ ID NO: 53) (listed as RNA, chemistry not given here) | 0.47 | 0.14 | 0.13 | 0.11 | 0.09 | 0.19 | –
siRNA 3: Sense 5′-GCUGGACAAGGACCAUUUA-3′ (SEQ ID NO: 54), antisense 5′-UAAAUGGUCCUUGUCCAGC-3′ (SEQ ID NO: 55) (listed as RNA, chemistry not given here) | 0.43 | 0.22 | 0.43 | 0.37 | 0.30 | 0.35 | –
